Patent publication US9877836B2, “Compression resistant implants including an oxysterol and methods of use” (Warsaw Orthopedic, Inc., priority 2015, dated 2018)
“Also recorded” adds a separate entry of the source.

Experiments:
[1] = test system: multipotent mesenchymal cells such as M2-10B4 (M2) marrow stromal cells and C3H10T1/2 embryonic fibroblasts; conditions: Kha et al. J Bone Miner Res 19:830-840, 2004; cited from earlier work
[2] = test system: rat spines (posterolateral space, L3-L5); test: posterolateral spinal fusion in rat two-level spine model; assay type: in vivo; conditions: for bone growth on radiographs: 4-week and 8-week timepoints; for fusion by manual palpation of the spine segments (in words): 8 weeks; for fusion observed in rat spines (manual palpation): matrix of Oxy133, collagen and ceramic wetted with sterile water, two implants bilaterally, 8-week sacrifice, 5/5 spines
Experimental: FIG. 6 illustrates uses of a formulation of malleable implants having 20 mg of Oxy133 on each side of the implant, in accordance with the malleable implants described herein. […] A dry composition of a matrix containing Oxy133, collagen and ceramic as described herein was prepared and wetted with sterile water to be implanted in rat spines as shown in FIG. 6. The wetted matrix was cut in half with a razor blade to yield two halves. The two implants were molded into cylindrical shapes prior to insertion and were positioned bilaterally in the posterolateral space of each test subject. Each implant contained 20 mg Oxy133. Radiographs were taken roughly 10 minutes after the procedure, 4 weeks after the procedure, and 8 weeks after the procedure. […] Fusion was tested at 8-week sacrifice by manual palpation. […] A dry composition of a matrix containing Oxy133, collagen and ceramic as described herein was prepared and wetted with sterile water to be implanted in rat spines as shown in FIG. 6. The wetted matrix was cut in half with a razor blade to yield two halves. The two implants were molded into cylindrical shapes prior to insertion and were positioned bilaterally in the posterolateral space of each test subject. Each implant contained 125 mg Oxy133. Radiographs were taken roughly 10 minutes after the procedure, 4 weeks after the procedure, and 8 weeks after the procedure. […] Fusion was tested at 8-week sacrifice by manual palpation.

Mesenchymal stem cells = conditions: general statement, no experiment described; cited from earlier work

Compound: CC(C)CCC[C@](C)(O)[C@H]1CC[C@H]2[C@@H]3CC=C4C[C@@H](O)CC[C@]4(C)[C@H]3CC[C@@]21C [20(S)-hydroxycholesterol]
- osteogenic differentiation [1]: induce osteogenic differentiation

Compound: CC(C)CC[C@@H](O)[C@@H](C)[C@H]1CC[C@H]2[C@@H]3CC=C4C[C@@H](O)CC[C@]4(C)[C@H]3CC[C@]12C [22(R)-hydroxycholesterol]
- osteogenic differentiation [1]: induce osteogenic differentiation

Compound: CC(C)CC[C@H](O)[C@@H](C)[C@H]1CC[C@H]2[C@@H]3CC=C4C[C@@H](O)CC[C@]4(C)[C@H]3CC[C@]12C [22(S)-hydroxycholesterol]
- osteogenic differentiation [1]: induce osteogenic differentiation

Compound: CCCCCC[C@](C)(O)[C@H]1CC[C@H]2[C@@H]3C[C@H](O)[C@H]4C[C@@H](O)CC[C@]4(C)[C@H]3CC[C@@]21C [Oxy133, (3S,5S,6S,8R,9S,10R,13S,14S,17S)-17-((S)-2-hydroxyoctan-2-yl)-10,13-dimethylhexadecahydro-1H-cyclopenta[α]phenanthrene-3,6-diol]
- bone growth on radiographs ([2]; implants with 20 mg Oxy133 each): promoted bridging bone across the transverse processes of L3-L5; also recorded: Bone growth in rat test subjects can be seen
- fusion by manual palpation of the spine segments (in words) ([2]; implants with 20 mg Oxy133 on each side): fusion was confirmed
- bone growth on radiographs ([2]; implants with 125 mg Oxy133 each): promoted bridging bone across the transverse processes of L3-L5; also recorded: Bone growth in rat test subjects can be seen
- fusion by manual palpation of the spine segments (in words) ([2]; implants with 125 mg Oxy133 on each side): fusion was confirmed
- fusion observed in rat spines (manual palpation) ([2]; each 20 mg Oxy133): 100%
- fusion observed in rat spines (manual palpation) ([2]; each 125 mg Oxy133): 100%
- osteoblast differentiation (Mesenchymal stem cells): increased osteoblast differentiation
